Reference: PubChem BioAssay AID1919009 (Molecular Pharmacology Branch, DTP, NCI, 2023)

Test system: K24384-001-R-PDC complex spheroid growth
Test: Anticancer human tumor K24384-001-R-PDC patient-derived pancreatic adenocarcinoma cell line growth inhibition [AhR]
Details: for IC50: curve of first compound; for viability, T/C: stronger effect = lower value
Method in brief: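 Agents were dosed in half-log steps down from roughly clinical Cmax, or from 10 microM where Cmax was unknown, alone and with AhR antagonists. Read-out: percent test/control growth of tumor spheroids containing HUVEC and MSC stromal cells.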
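Wherever viability, T/C is given: percent of DMSO vehicle-treated spheroid viability set as 100%.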

CCc1c2c(nc3ccc(O)cc13)-c1cc3c(c(=O)n1C2)COC(=O)[C@]3(O)CC + Cc1ccccc1N=Nc1ccc(NC(=O)c2ccnn2C)c(C)c1
IC50 (second compound 0.1 µM): 8.69 nM
IC50 (second compound 0.316 µM): 29.2 nM
IC50 (second compound 1 µM): 8.68 nM
IC50 (second compound 3.16 µM): 19.8 nM
IC50 (second compound 10 µM): 68 nM
viability, T/C (second compound 0.1 µM, first compound 0.000949 µM): 74.2%
viability, T/C (second compound 0.1 µM, first compound 0.003 µM): 72.8%
viability, T/C (second compound 0.1 µM, first compound 0.00949 µM): 48.1%
viability, T/C (second compound 0.1 µM, first compound 0.03 µM): 48.9%
viability, T/C (second compound 0.1 µM, first compound 0.0949 µM): 49.8%
viability, T/C (second compound 0.1 µM, first compound 0.3 µM): 36.7%
viability, T/C (second compound 0.316 µM, first compound 0.000949 µM): 96.2%
viability, T/C (second compound 0.316 µM, first compound 0.003 µM): 77.7%
viability, T/C (second compound 0.316 µM, first compound 0.00949 µM): 58.1%
viability, T/C (second compound 0.316 µM, first compound 0.03 µM): 51.6%
viability, T/C (second compound 0.316 µM, first compound 0.0949 µM): 41.9%
viability, T/C (second compound 0.316 µM, first compound 0.3 µM): 31.4%
viability, T/C (second compound 1 µM, first compound 0.000949 µM): 77.4%
viability, T/C (second compound 1 µM, first compound 0.003 µM): 100%
viability, T/C (second compound 1 µM, first compound 0.00949 µM): 46.7%
viability, T/C (second compound 1 µM, first compound 0.03 µM): 45.2%
viability, T/C (second compound 1 µM, first compound 0.0949 µM): 47.6%
viability, T/C (second compound 1 µM, first compound 0.3 µM): 30.8%
viability, T/C (second compound 3.16 µM, first compound 0.000949 µM): 73.3%
viability, T/C (second compound 3.16 µM, first compound 0.003 µM): 62%
viability, T/C (second compound 3.16 µM, first compound 0.00949 µM): 55.6%
viability, T/C (second compound 3.16 µM, first compound 0.03 µM): 46.1%
viability, T/C (second compound 3.16 µM, first compound 0.0949 µM): 41.5%
viability, T/C (second compound 3.16 µM, first compound 0.3 µM): 30%
viability, T/C (second compound 10 µM, first compound 0.000949 µM): 94%
viability, T/C (second compound 10 µM, first compound 0.003 µM): 82%
viability, T/C (second compound 10 µM, first compound 0.00949 µM): 64.3%
viability, T/C (second compound 10 µM, first compound 0.03 µM): 65.7%
viability, T/C (second compound 10 µM, first compound 0.0949 µM): 48.6%
viability, T/C (second compound 10 µM, first compound 0.3 µM): 29.3%

Nc1ccccc1NC(=O)c1ccc(CNC(=O)OCc2cccnc2)cc1 + Cc1ccccc1N=Nc1ccc(NC(=O)c2ccnn2C)c(C)c1
IC50 (second compound 0.1 µM): 1810 nM
IC50 (second compound 0.316 µM): 1710 nM
IC50 (second compound 1 µM): 1330 nM
IC50 (second compound 3.16 µM): 1410 nM
IC50 (second compound 10 µM): 1500 nM
viability, T/C (second compound 0.1 µM, first compound 0.0316 µM): 100%
viability, T/C (second compound 0.1 µM, first compound 0.1 µM): 93.9%
viability, T/C (second compound 0.1 µM, first compound 0.316 µM): 83.2%
viability, T/C (second compound 0.1 µM, first compound 1 µM): 63.6%
viability, T/C (second compound 0.1 µM, first compound 3.16 µM): 37%
viability, T/C (second compound 0.1 µM, first compound 10 µM): 7.04%
viability, T/C (second compound 0.316 µM, first compound 0.0316 µM): 105%
viability, T/C (second compound 0.316 µM, first compound 0.1 µM): 104%
viability, T/C (second compound 0.316 µM, first compound 0.316 µM): 78.2%
viability, T/C (second compound 0.316 µM, first compound 1 µM): 68.7%
viability, T/C (second compound 0.316 µM, first compound 3.16 µM): 32.3%
viability, T/C (second compound 0.316 µM, first compound 10 µM): 6.55%
viability, T/C (second compound 1 µM, first compound 0.0316 µM): 95.1%
viability, T/C (second compound 1 µM, first compound 0.1 µM): 94.7%
viability, T/C (second compound 1 µM, first compound 0.316 µM): 67.9%
viability, T/C (second compound 1 µM, first compound 1 µM): 60.2%
viability, T/C (second compound 1 µM, first compound 3.16 µM): 30.4%
viability, T/C (second compound 1 µM, first compound 10 µM): 5.37%
viability, T/C (second compound 3.16 µM, first compound 0.0316 µM): 85.9%
viability, T/C (second compound 3.16 µM, first compound 0.1 µM): 78.3%
viability, T/C (second compound 3.16 µM, first compound 0.316 µM): 80.6%
viability, T/C (second compound 3.16 µM, first compound 1 µM): 52.9%
viability, T/C (second compound 3.16 µM, first compound 3.16 µM): 34%
viability, T/C (second compound 3.16 µM, first compound 10 µM): 4.36%
viability, T/C (second compound 10 µM, first compound 0.0316 µM): 81.8%
viability, T/C (second compound 10 µM, first compound 0.1 µM): 84.1%
viability, T/C (second compound 10 µM, first compound 0.316 µM): 80.4%
viability, T/C (second compound 10 µM, first compound 1 µM): 54.5%
viability, T/C (second compound 10 µM, first compound 3.16 µM): 35.2%
viability, T/C (second compound 10 µM, first compound 10 µM): 6.31%
